“And” between values parts separate entries of the source, which are not always exact repeats. Equal values may be shown once.
Assays:
E. coli [1] = conditions: comparison among catechins; cited from earlier work
E. coli [2] = test: Sensitivity of E. coli to EGCg (dilution method, MIC); assay type: cell-based; conditions: E. coli 1×10^7 CFU/ml, 37 degrees Celsius, 24 hours, static
Experimental: Sensitivity of E. coli to EGCg was examined by a general sensibility test method (dilution method). E. coli suspensions (1×10^7 CFU/ml), in which gradually diluted (0.16, 0.31, 0.63, 1.25, 2.5, 5.0 mM) epigallocatechin gallate (EGCg) solutions were mixed, were placed in a culture plate and incubated at 37 degrees Celsius for 24 hours under a static condition. Minimal inhibitory concentration (MIC) was defined as the smallest EGCg concentration in which no bacteria growth is recognized macroscopically.

E. coli [3] = test: Inhibitory effect of EGCg on biofilm formation on polyurethane discs (static, plate count); assay type: cell-based; conditions: E. coli 2×10^3 CFU/ml, 37 degrees Celsius, 24 hours, listed as epigallocatechin gallate (EGCg)
Experimental: 8 mm diameter disc shaped polyurethanes were cultured with an E. coli suspension (2×10^3 CFU/ml) which was mixed with various concentrations of epigallocatechin gallate (EGCg) (0-0.2 mM) under a static condition at 37 degrees Celsius for 24 hours in a culture plate. After incubations, the polyurethane discs were taken out, and having been washed in a phosphate buffer gently, they were moved to a 2 ml phosphate buffer, where they were sonicated to detach the adhered E. coli. Viable E. coli cell counts in the liquid were calculated by the plate count method.

E. coli in biofilm = test: Effect of EGCg on living microbes after biofilm formation; assay type: cell-based; conditions: 24 hours biofilm, then 24 hours exposure; listed as epigallocatechin gallate (EGCg)
Experimental: Biofilms were formed on polyurethane surfaces after incubating 8 mm diameter polyurethane discs placed in a culture plate with an E. coli suspension (2×10^3 CFU/ml) under a static condition at 37 degrees Celsius for 24 hours. After adding solutions with various degrees of epigallocatechin gallate (EGCg) concentration (0-50 mM) to the biofilm surfaces that were formed, they were exposed for another 24 hours. After the polyurethane discs were taken out, and washed with a phosphate buffer solution gently, they were moved to a 2 ml phosphate buffer solution and sonicated to detach adhered E. coli. Viable E. coli cell count in this liquid was counted by the plate count method. […] These levels of concentration are much higher compared to the Example 1 where catechin was placed from the beginning of incubation.

[4] = high dosage long-term oral administration; cited from earlier work

For `O=C(O[C@@H]1Cc2c(O)cc(O)cc2O[C@@H]1c1cc(O)c(O)c(O)c1)c1cc(O)c(O)c(O)c1` [EGCg, epigallocatechin gallate], the “antibacterial action / minimal inhibitory concentration against E. coli, among the catechins” value (E. coli [1]) is listed as “smallest minimal inhibitory concentration against E. coli”, the “minimal inhibitory concentration (MIC)” value (E. coli [2]) is listed as 0.63 mM and 287 μg/ml and the “concentration at which biofilm formation is inhibited completely” value (E. coli [3]) is listed as ≥ 0.15 mM and ≥ 0.069 mg/ml. For the same compound, the “concentration at which biofilm formation is inhibited significantly” value (E. coli [3]) was ≥ 0.12 mM and ≥ 0.055 mg/ml, the “concentration at which E. coli in biofilm were exterminated completely” value (E. coli in biofilm) was 50 mM and 23 mg/ml and the “concentration at which viable cell counts in formed biofilm decreased significantly” value (E. coli in biofilm) was ≥ 8 mM and ≥ 3.7 mg/ml. The “side effects / safety to the human body” value [4] was “no side effect has been reported”.

Source: patent US8540766B2, “Biofilm formation inhibitor and treatment device thereof” (Kyushu University, National University Corporation, priority 2004, dated 2013)
